# Data as given in patent publication US8933232B2, “1,3,4-oxadiazole and 1,3,4-thiadiazole beta-lactamase inhibitors” (priority 2012, dated 2015).
# Counter-ions that a name gives are not always drawn.
# Tested on: bacterial strains that express KPC β-lactamases
# Assay: Synergy MIC / standard BLI potentiation MIC assay against strains expressing KPC β-lactamases
# Assay type: cell-based
# Conditions: in the presence of a β-lactam; comparator Avibactam
# Method: The experimental protocol was performed according to Clinical and Laboratory Standards Institute (CLSI) guidelines with modifications as described below (CLSI guidelines can be derived from the CLSI document M07-A9 published in January 2012: “Methods for Dilution Antimicrobial Susceptibility Tests for Bacteria That Grow Aerobically; Approved Standard-Ninth Edition”).
# To prepare for MIC testing, frozen glycerol stocks of clinical isolates (Klebsiella pneumoniae, Eschericia coli, Enterobacter spp, Citrobacter spp, or Pseudomonas aeruginosa) were used to streak for isolated colonies on rich, non-selective, tryptic soy agar containing 5% sheep's blood (TSAB). Frozen glycerol stocks of laboratory engineered, isogenic E. coli strains, which contain cloned β-lactamase expressing plasmids were used to streak for isolated colonies on rich, selective LB agar supplemented with 25 μg/mL tetracycline to maintain the plasmid. All strains were incubated at 37° C. for 18-24 hrs.
# On the day of testing, primary cultures were started by scraping off 5-10 colonies from the TSAB plates containing clinical strains or the tetracycline supplemented LB plates containing engineered strains. The clinical strain material was suspended in ˜5 mL of cation adjusted Mueller Hinton Broth (CAMHB) in 14 mL culture tubes. The engineered strain material was suspended in CAMHB (supplemented with 25 μg/mL tetracycline) in 14 mL culture tubes. All strains were incubated at 37° C. with aeration (200 rpm) for ˜2 hrs until the optical density at 600 nm (OD600) was >0.1.
# The two compound components of the assay were each diluted in CAMHB and added to the 96-well broth microdilution assay plates. 50 μL of the β-lactam was added to each well of the assay plate in 2-fold dilutions with final concentrations ranging from 128 to 0.13 μg/mL. 25 μL, of the BLI compound was added to all wells in the broth microdilution plates at a final concentration of 4 μg/mL. Inoculum cultures were prepared by standardizing the primary cultures to OD600=0.1 and then adding 20 μL of the adjusted primary culture per 1 mL CAMHB for clinical strains or CAMHB (supplemented with tetracycline at 100 μg/mL) for engineered strains, so that the final inoculum density was ˜10^5 colony forming units per milliliter. Diluted inoculum cultures were used to inoculate 25 μl, per well in 96-well broth microdilution assay plates. The final volume of each well was 100 μL and contained a β-lactam at different concentrations, a BLIcompound at 4 μg/mL concentration, the bacterial culture at an OD600 of approximately 0.001 and when necessary tetracycline at 25 μg/mL.
# Plates were incubated for 18-20 hours at 37° C. with aeration (200 rpm). Following incubation, growth was confirmed visually placing plates over a viewing apparatus (stand with a mirror underneath) and then OD600 was measured using a SpectraMax 340PC384 plate reader (Molecular Devices, Sunnyvale, Calif.). Growth was defined as turbidity that could be detected with the naked eye or achieving minimum OD600 of 0.1. MIC values were defined as the lowest concentration producing no visible turbidity.
# The synergy MIC (sMIC) assay determines the concentration of the BLI required to potentiate the activity of a fixed concentration of a β-lactam antibiotic against β-lactamase producing bacterial strains. The experimental protocol was performed according to Clinical and Laboratory Standards Institute (CLSI) guidelines with modifications as described below (CLSI guidelines can be derived from the CLSI document M07-A9 published in January 2012: “Methods for Dilution Antimicrobial Susceptibility Tests for Bacteria That Grow Aerobically; Approved Standard-Ninth Edition”). […]
row,Compound,more active than Avibactam for at least one bacterial strain that expresses KPC β-lactamase and/or better spectrum of activity against KPC strains
1,"O=C1N2C[C@@H](CC[C@H]2c2nnco2)N1OS(=O)(=O)O [Compound 701, (2S,5R)-2-(1,3,4-oxadiazol-2-yl)-7-oxo-1,6-diazabicyclo[3.2.1]octan-6-yl hydrogen sulfate]",more active than Avibactam
2,"NCc1nnc([C@@H]2CC[C@@H]3CN2C(=O)N3OS(=O)(=O)O)o1 [Compound 702, (2S,5R)-2-(5-(aminomethyl)-1,3,4-oxadiazol-2-yl)-7-oxo-1,6-diazabicyclo[3.2.1]octan-6-yl hydrogen sulfate]",more active than Avibactam
3,"NCCc1nnc([C@@H]2CC[C@@H]3CN2C(=O)N3OS(=O)(=O)O)o1 [Compound 703, (2S,5R)-2-(5-(2-aminoethyl)-1,3,4-oxadiazol-2-yl)-7-oxo-1,6-diazabicyclo[3.2.1]octan-6-yl hydrogen sulfate]",more active than Avibactam
4,"N=C(N)NCCc1nnc([C@@H]2CC[C@@H]3CN2C(=O)N3OS(=O)(=O)O)o1 [Compound 705, (2S,5R)-2-(5-(2-guanidinoethyl)-1,3,4-oxadiazol-2-yl)-7-oxo-1,6-diazabicyclo[3.2.1]octan-6-yl hydrogen sulfate]",more active than Avibactam
5,"NC(=O)c1nnc([C@@H]2CC[C@@H]3CN2C(=O)N3OS(=O)(=O)O)o1 [Compound 706, (2S,5R)-2-(5-carbamoyl-1,3,4-oxadiazol-2-yl)-7-oxo-1,6-diaza-bicyclo[3.2.1]octan-6-yl hydrogen sulfate]",more active than Avibactam
6,"O=C1N2C[C@@H](CC[C@H]2c2nnc(C3CNC3)o2)N1OS(=O)(=O)O [Compound 708, (2S,5R)-2-(5-(azetidin-3-yl)-1,3,4-oxadiazol-2-yl)-7-oxo-1,6-diazabicyclo[3.2.1]octan-6-yl hydrogen sulfate]",more active than Avibactam
7,"N=C(N)N1CC(c2nnc([C@@H]3CC[C@@H]4CN3C(=O)N4OS(=O)(=O)O)o2)C1 [Compound 709, (2S,5R)-2-(5-(1-carbamimidoylazetidin-3-yl)-1,3,4-oxadiazol-2-yl)-7-oxo-1,6-diazabicyclo[3.2.1]octan-6-yl hydrogen sulfate]",more active than Avibactam
8,"O=C1N2C[C@@H](CC[C@H]2c2nnc(C3CCNC3)o2)N1OS(=O)(=O)O (stereo partly drawn) [Compound 710, (2S,5R)-7-oxo-2-(5-(pyrrolidin-3-yl)-1,3,4-oxadiazol-2-yl)-1,6-diazabicyclo[3.2.1]octan-6-yl hydrogen sulfate]",more active than Avibactam
9,"O=C1N2C[C@@H](CC[C@H]2c2nnc(C3CCNCC3)o2)N1OS(=O)(=O)O [Compound 711, (2S,5R)-7-oxo-2-(5-(piperidin-4-yl)-1,3,4-oxadiazol-2-yl)-1,6-diazabicyclo[3.2.1]octan-6-yl hydrogen sulfate]",more active than Avibactam
10,"NCCCc1nnc([C@@H]2CC[C@@H]3CN2C(=O)N3OS(=O)(=O)O)o1 [Compound 720, (2S,5R)-2-(5-(3-aminopropyl)-1,3,4-oxadiazol-2-yl)-7-oxo-1,6-diazabicyclo[3.2.1]octan-6-yl hydrogen sulfate]",more active than Avibactam
11,"N=C(N)NCc1nnc([C@@H]2CC[C@@H]3CN2C(=O)N3OS(=O)(=O)O)s1 [Compound 721, (2S,5R)-2-(5-(guanidinomethyl)-1,3,4-thiadiazol-2-yl)-7-oxo-1,6-diazabicyclo[3.2.1]octan-6-yl hydrogen sulfate]",more active than Avibactam
12,"CNCCc1nnc([C@@H]2CC[C@@H]3CN2C(=O)N3OS(=O)(=O)O)o1 [Compound 722, (2S,5R)-2-(5-(2-(methylamino)ethyl)-1,3,4-oxadiazol-2-yl)-7-oxo-1,6-diazabicyclo[3.2.1]octan-6-yl hydrogen sulfate]",more active than Avibactam
13,"N=C(N)NCC1(c2nnc([C@@H]3CC[C@@H]4CN3C(=O)N4OS(=O)(=O)O)o2)CC1 [Compound 723, (2S,5R)-2-(5-(1-(guanidinomethyl)cyclopropyl)-1,3,4-oxadiazol-2-yl)-7-oxo-1,6-diazabicyclo[3.2.1]octan-6-yl hydrogen sulfate]",more active than Avibactam
14,"NC1(Cc2nnc([C@@H]3CC[C@@H]4CN3C(=O)N4OS(=O)(=O)O)o2)CC1 [Compound 724, (2S,5R)-2-(5-((1-aminocyclopropyl)methyl)-1,3,4-oxadiazol-2-yl)-7-oxo-1,6-diazabicyclo[3.2.1]octan-6-yl hydrogen sulfate]",more active than Avibactam
15,"O=C1N2C[C@@H](CC[C@H]2c2nnc(CNC3CNC3)o2)N1OS(=O)(=O)O [Compound 726, (2S,5R)-2-(5-((azetidin-3-ylamino)methyl)-1,3,4-oxadiazol-2-yl)-7-oxo-1,6-diazabicyclo[3.2.1]octan-6-yl hydrogen sulfate]",more active than Avibactam
16,"N[C@H]1C[C@H](c2nnc([C@@H]3CC[C@@H]4CN3C(=O)N4OS(=O)(=O)O)o2)C1 [Compound 727, (2S,5R)-2-(5-((1r,3S)-3-aminocyclobutyl)-1,3,4-oxadiazol-2-yl)-7-oxo-1,6-diazabicyclo[3.2.1]octan-6-yl hydrogen sulfate]",more active than Avibactam
17,"N[C@H]1C[C@@H](Cc2nnc([C@@H]3CC[C@@H]4CN3C(=O)N4OS(=O)(=O)O)o2)C1 [Compound 728, (2S,5R)-2-(5-(((1s,3R)-3-aminocyclobutyl)methyl)-1,3,4-oxadiazol-2-yl)-7-oxo-1,6-diazabicyclo[3.2.1]octan-6-yl hydrogen sulfate]",more active than Avibactam
18,"N[C@@H]1CC[C@H](c2nnc([C@@H]3CC[C@@H]4CN3C(=O)N4OS(=O)(=O)O)o2)C1 [Compound 729, (2S,5R)-2-(5-((1S,3R)-3-aminocyclopentyl)-1,3,4-oxadiazol-2-yl)-7-oxo-1,6-diazabicyclo[3.2.1]octan-6-yl hydrogen sulfate]",more active than Avibactam
19,"N=C(N)NCC(O)Cc1nnc([C@@H]2CC[C@@H]3CN2C(=O)N3OS(=O)(=O)O)o1 (stereo partly drawn) [Compound 730, (2S,5R)-2-(5-(3-guanidino-2-hydroxypropyl)-1,3,4-oxadiazol-2-yl)-7-oxo-1,6-diazabicyclo[3.2.1]octan-6-yl hydrogen sulfate]",more active than Avibactam
20,"N=C(N)NC[C@@H](O)c1nnc([C@@H]2CC[C@@H]3CN2C(=O)N3OS(=O)(=O)O)o1 [Compound 731, (2S,5R)-2-(5-((R)-2-guanidino-1-hydroxyethyl)-1,3,4-oxadiazol-2-yl)-7-oxo-1,6-diazabicyclo[3.2.1]octan-6-yl hydrogen sulfate]",more active than Avibactam
